Experiment [1] deals with T1, adenylate kinase (AdK) (Escherichia coli, UniProt P69441). The experiment can be described thus: isothermal titration calorimetry. The format is binding.
Experiment [2] has as its target T1, adenylate kinase (AdK). In words: steady-state enzyme kinetics. Format: biochemical. To be noted: cited from earlier work.

Molecules are shown by their SMILES.

T1 sequence (P69441 whole entry): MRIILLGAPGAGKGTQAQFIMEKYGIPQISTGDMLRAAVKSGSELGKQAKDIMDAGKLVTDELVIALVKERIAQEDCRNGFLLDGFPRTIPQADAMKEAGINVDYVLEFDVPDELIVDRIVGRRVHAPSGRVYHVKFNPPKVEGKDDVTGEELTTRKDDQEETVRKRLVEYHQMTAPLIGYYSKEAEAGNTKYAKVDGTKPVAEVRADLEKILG

`Nc1ncnc2c1ncn2[C@@H]1O[C@H](COP(=O)(O)OP(=O)(O)O)[C@@H](O)[C@H]1O` [ADP] returned a Kd on adenylate kinase (AdK) [1] of 9 µM. For `Nc1ncnc2c1ncn2[C@@H]1O[C@H](COP(=O)(O)OP(=O)(O)OP(=O)(O)O)[C@@H](O)[C@H]1O` [ATP], the Km at adenylate kinase (AdK) [2] is 71 µM.

(Values after PMC8297476 (Biochemistry, 2021).)
